Earlier results as cited in PMC7687107 (Chemmedchem, 2020).

Molecular target: tRNA guanine transglycosylase (TGT) (Zymomonas mobilis, UniProt P28720)
Assay: SPR
Type: binding

Chain of tRNA guanine transglycosylase (TGT) (P28720 2-386): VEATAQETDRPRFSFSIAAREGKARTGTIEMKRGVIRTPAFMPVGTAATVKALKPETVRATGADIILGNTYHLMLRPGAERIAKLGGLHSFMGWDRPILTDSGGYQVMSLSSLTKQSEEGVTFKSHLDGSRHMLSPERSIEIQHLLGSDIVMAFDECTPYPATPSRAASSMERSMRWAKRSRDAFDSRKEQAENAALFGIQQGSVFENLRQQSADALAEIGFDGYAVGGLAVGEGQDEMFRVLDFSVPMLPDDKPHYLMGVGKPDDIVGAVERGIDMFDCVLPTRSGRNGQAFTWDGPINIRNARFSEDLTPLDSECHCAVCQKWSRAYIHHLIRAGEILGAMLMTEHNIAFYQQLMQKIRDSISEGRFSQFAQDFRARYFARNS

CNc1nc2c(CCC3OC(OC)C(O)C3O)c3[nH]c(N)nc(=O)c3cc2[nH]1 (stereo not shown) [compound 1, 6‐amino‐4‐[2‐(3,4‐dihydroxy‐5‐methoxyoxolan‐2‐yl)ethyl]‐2‐(methylamino)‐1H,5H‐imidazo[4,5‐g]quinazolin‐8‐one]
Kd: 68 ± 5 nM
